Assay results taken from US9459254B2, “Method for determining sensitivity to an anticancer agent” (KEIO UNIVERSITY, priority 2009, dated 2016).

Assays:
HCT116 cells [1] = experiment: SELDI-TOF MS intracellular protein expression after drug exposure, HCT116; assay type: cell-based, human
Protocol: (§1) The 5-FU+SN-38 combination concentration was adjusted to the following four levels: 2 μM+10 nM, 2 μM+100 nM, 100 μM+10 nM, and 100 μM+100 nM, the 5-FU concentration (exposure to single agent) was adjusted to 2 μM and 100 μM, and the SN-38 concentration (exposure to single agent) was adjusted to 10 nM and 100 nM. In addition, the exposure test was conducted at a drug-free concentration (control). That is, nine concentrations in total were employed. Drug exposure time was adjusted to the following four periods of time: 0 hour (just before exposure), 4 hours, 24 hours, and 48 hours. After completion of exposure, cell count was performed, and intracellular proteins were extracted.
(§2) The medium was removed from the dish and washed thrice with ice-cooled PBS. The cells on the dish was collected by scraping with a rubber policeman. The thus-obtained cell suspension was transferred to a 1.5-mL microtube. The cell suspension was centrifuged at 4° C. and 1,200×g for 10 minutes, and the cells were recovered. After removal of the supernatant, a cell lysis buffer (9 mol/L urea, 2% CHAPS, 1 mM DTT, protease-inhibitor cocktail (Sigma)) was added in a volume of 200 μL with respect to 10,000,000 cells. The liquid was subjected to untrasonic treatment under cooling with ice. The thus-treated product was centrifuged at 4° C. and 16,000×g for 20 minutes, and the supernatant was quickly frozen with liquid nitrogen. The frozen product was stored at −80° C. before analysis. An aliquot of the supernatant was subjected to protein quantification (DC Protein Assay Kit, Bio-Rad).
(§3) The protein sample was mixed with a cell lysis buffer (excluding protease inhibitor), to thereby adjust the protein concentration to 2.5 mg/mL. The liquid was further mixed with a dilution/washing buffer (pH: 4.5, 50 mM sodium acetate buffer) (hereinafter referred to simply as “buffer”), to a protein concentration of 0.5 mg/mL. The thus-prepared sample (100 μL) was applied to spots of a cation-exchange ProteinChip array (CM10, Bio-Rad) which had been conditioned in advance with the same buffer. […]

DLD-1 cells [2] = experiment: SELDI-TOF MS intracellular protein expression after drug exposure, DLD-1; assay type: cell-based, human
Protocol: as §1, §2, §3

DLD-1 cells [3] = experiment: MTS assay cell viability after drug exposure, DLD-1
Protocol: (§4) Two colorectal cancer lines (HCT116 and DLD-1, obtained from ECACC) were exposed to a drug, and 48 hours and 72 hours after drug exposure, cell viability was determined by means of an MTS assay (CellTiter96™ AQueous One Solution Cell Proliferation Assay, Promega). Drug exposure conditions were as follows. 5-FU (single agent) was used at the following 11 concentrations: control (0 μM), 0.001 μM, 0.01 μM, 0.1 μM, 1 μM, 3 μM, 10 μM, 30 μM, 100 μM, 1,000 μM, and 10,000 μM. SN-38 (single agent) was used at the following 11 concentrations; control (0 nM), 0.001 nM, 0.01 nM, 0.1 nM, 0.3 nM, 1 nM, 3 nM, 10 nM, 30 nM, 100 nM, and 1,000 nM. In the case of 5-FU/SN-38 combination, 5-FU was used at 2 μM, 10 μM, 30 μM, and 100 μM (4 concentrations), and SN-38 was used at 0.001 nM, 0.01 nM, 0.1 nM, 0.3 nM, 1 nM, 3 nM, 10 nM, 30 nM, 100 nM, and 1,000 nM (10 concentrations); i.e., 40 concentrations were employed. […]
(§5) Sensitivity analysis was performed from viability data calculated from MTS assay results. The presence or absence of combined effect was determined through comparison of viability obtained by exposure to a combination with that obtained by exposure to a single agent at the same concentration as employed at the exposure to the combination.

HCT116 cells [4] = experiment: MTS assay cell viability after drug exposure, HCT116
Protocol: as §4, §5

[5] = compared with CPT-11; cited from earlier work

Structure (SMILES) | intracellular protein A level (m/z 16,450 to 16,620) after drug exposure (HCT116 cells [1]) | intracellular protein A level after drug exposure (DLD-1 cells [2]) | cell viability (DLD-1 cells [3]; DLD-1, 100 μM 5-FU, 48 hours) | cell viability (HCT116 cells [4]; HCT116, 100 μM 5-FU, 48 hours) | intracellular protein B level (m/z 22,080 to 22,310) after drug exposure (HCT116 cells [1]) | intracellular protein B level after drug exposure (DLD-1 cells [2]) | anti-tumor activity relative to that of CPT-11 [5] | cell viability (DLD-1 cells [3]; DLD-1, 100 nM SN-38, 72 hours) | cell viability (HCT116 cells [4]; HCT116, 100 nM SN-38, 72 hours)
O=c1[nH]cc(F)c(=O)[nH]1 [5-FU, Fluorouracil] | protein level increase | no significant difference | about 49% | about 24% |  |  |  |  | 
CCc1c2c(nc3ccc(O)cc13)-c1cc3c(c(=O)n1C2)COC(=O)[C@]3(O)CC [SN-38, 7-ethyl-10-hydroxycamptothecin] | protein level increase | no significant difference |  |  | protein level increase | no significant difference | about 100 times to some thousand times | about 76% | about 24%
